Reference: patent US9828360B2 (Array BioPharma Inc., priority 2012, dated 2017)

Target: TrkA (Homo sapiens, UniProt P04629)
Test: TrkA LanthaScreen Eu Kinase Binding Assay
Design: 6HIS tagged cytoplasmic domain from Invitrogen, Cat. No. PV3144; purchased Invitrogen PV3144
Conditions: averaged IC50 values, read-out: TrkA Enzyme IC50
Description: TrkA binding activity was determined in a TrkA LanthaScreen™ Eu Kinase Binding Assay. 5 nM His-tagged recombinant human TrkA (6HIS tagged cytoplasmic domain from Invitrogen, Cat. No. PV3144) was incubated with 4 nM Alexa-Fluor® Tracer 236 (Invitrogen Cat. No. PV5592), 2 nM biotinylated anti-His (Invitrogen Cat. No. PV6090), and 2 nM europium-labeled Streptavidin (Invitrogen Cat. No. PV5899), in buffer (25 mM MOPS, pH 7.5, 5 mM MgCl2, 0.005% Triton X-100). Three fold serial dilutions of compounds of the invention in DMSO were added to a final percentage of 2% DMSO. After 60-minute incubation at 22° C., the reaction was measured using the EnVision mutlimode plate reader (PerkinElmer) via TR-FRET dual wavelength detection at […]. The percent of control was calculated using a ratiometric emission factor. The IC50 values were determined by fitting a four parameter model to the percent of control data.
Table A provides averaged IC50 values for compounds of the invention when tested in the assay of Example A, where A represents an averaged IC50 value <100 nM; and B represents an averaged IC50 value from 100 to 1,000 nM.

Sequence of TrkA (P04629 440-796 limits assumed): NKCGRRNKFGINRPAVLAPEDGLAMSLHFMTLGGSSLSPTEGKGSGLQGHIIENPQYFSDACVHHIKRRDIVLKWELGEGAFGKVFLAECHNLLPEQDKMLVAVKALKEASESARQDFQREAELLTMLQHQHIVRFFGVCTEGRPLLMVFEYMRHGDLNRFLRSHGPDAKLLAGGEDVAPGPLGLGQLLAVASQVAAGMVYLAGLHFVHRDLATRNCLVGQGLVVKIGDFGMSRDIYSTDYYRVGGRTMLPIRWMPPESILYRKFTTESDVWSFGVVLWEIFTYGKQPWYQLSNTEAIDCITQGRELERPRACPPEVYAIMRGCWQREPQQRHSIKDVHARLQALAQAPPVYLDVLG

| Compound | IC50 [nM] |
| --- | --- |
| COCCN1C[C@@H](NC(=O)Nc2ccc(=O)[nH]c2-c2ccccc2)[C@H](c2ccc(F)c(F)c2)C1 [Example 20, 1-((3S,4R)-4-(3,4-difluorophenyl)-1-(2-methoxyethyl)pyrrolidin-3-yl)-3-(6-oxo-2-phenyl-1,6-dihydropyridin-3-yl)urea] | < 100 |
| COCCN1C[C@@H](NC(=O)Nc2sc(-c3ccccc3)nc2C)[C@H](c2ccccc2)C1 [Example 46, 1-((3S,4R)-1-(2-methoxyethyl)-4-phenylpyrrolidin-3-yl)-3-(4-methyl-2-phenylthiazol-5-yl)urea] | < 100 |
| COCCN1C[C@@H](NC(=O)Nc2c(-c3ccccc3)c(=O)n(C)n2C)[C@H](c2ccc(F)c(F)c2)C1 [Example 39, 1-((3S,4R)-4-(3,4-difluorophenyl)-1-(2-methoxyethyl)pyrrolidin-3-yl)-3-(1,2-dimethyl-5-oxo-4-phenyl-2,5-dihydro-1H-pyrazol-3-yl)urea] | < 100 |
| COCCN1C[C@@H](NC(=O)Nc2ccc(OC)nc2-c2ccccc2)[C@H](c2ccc(F)c(F)c2)C1 [Example 16, 1-((3S,4R)-4-(3,4-difluorophenyl)-1-(2-methoxyethyl)pyrrolidin-3-yl)-3-(6-methoxy-2-phenylpyridin-3-yl)urea] | < 100 |
| COCCN1C[C@@H](NC(=O)Nc2ccc(-c3ccc(S(C)(=O)=O)cc3)nc2C)[C@H](c2ccc(F)c(F)c2)C1 [Example 17, 1-((3S,4R)-4-(3,4-difluorophenyl)-1-(2-methoxyethyl)pyrrolidin-3-yl)-3-(2-methyl-6-(4-(methylsulfonyl)phenyl)pyridin-3-yl)urea] | 100 to 1000 |
| COCCN1C[C@@H](NC(=O)Nc2ccc(-c3ccccc3)nc2C)[C@H](c2ccc(F)c(F)c2)C1 [Example 9, 1-((3S,4R)-4-(3,4-difluorophenyl)-1-(2-methoxyethyl)pyrrolidin-3-yl)-3-(2-methyl-6-phenylpyridin-3-yl)urea] | 100 to 1000 |
| COCCN1C[C@@H](NC(=O)Nc2cc(-c3ccccc3)cnc2-c2ccccc2)[C@H](c2ccccc2)C1 [Example 7, 1-(2,5-diphenylpyridin-3-yl)-3-((3S,4R)-1-(2-methoxyethyl)-4-phenylpyrrolidin-3-yl)urea] | < 100 |
| COCCN1C[C@@H](NC(=O)Nc2ccc(-c3ccccc3)nc2C)[C@H](c2ccccc2)C1 [Example 8, 1-((3S,4R)-1-(2-methoxyethyl)-4-phenylpyrrolidin-3-yl)-3-(2-methyl-6-phenylpyridin-3-yl)urea] | 100 to 1000 |
| COCCN1C[C@@H](NC(=O)Nc2cc(-c3ccccc3)cnc2C)[C@H](c2ccc(F)c(F)c2)C1 [Example 10, 1-((3S,4R)-4-(3,4-difluorophenyl)-1-(2-methoxyethyl)pyrrolidin-3-yl)-3-(2-methyl-5-phenylpyridin-3-yl)urea] | 100 to 1000 |
| CCn1c(=O)c(-c2ccccc2)c(NC(=O)N[C@@H]2CN(CCOC)C[C@H]2c2ccc(F)c(F)c2)n1C [Example 40, 1-((3S,4R)-4-(3,4-difluorophenyl)-1-(2-methoxyethyl)pyrrolidin-3-yl)-3-(1-ethyl-2-methyl-5-oxo-4-phenyl-2,5-dihydro-1H-pyrazol-3-yl)urea] | < 100 |
| COCCN1C[C@@H](NC(=O)Nc2nc(-c3ccccc3)nn2C)[C@H](c2ccc(F)c(F)c2)C1 [Example 54, 1-((3S,4R)-4-(3,4-difluorophenyl)-1-(2-methoxyethyl)pyrrolidin-3-yl)-3-(1-methyl-3-phenyl-1H-1,2,4-triazol-5-yl)urea] | 100 to 1000 |
| COCCN1C[C@@H](NC(=O)Nc2cncnc2-c2ccccc2)[C@H](c2ccc(F)c(F)c2)C1 [Example 23, 1-((3S,4R)-4-(3,4-difluorophenyl)-1-(2-methoxyethyl)pyrrolidin-3-yl)-3-(4-phenylpyrimidin-5-yl)urea] | < 100 |
| COCCN1C[C@@H](NC(=O)Nc2nc(C)nn2-c2ccccc2)[C@H](c2ccc(F)c(F)c2)C1 [Example 53, 1-((3S,4R)-4-(3,4-difluorophenyl)-1-(2-methoxyethyl)pyrrolidin-3-yl)-3-(3-methyl-1-phenyl-1H-1,2,4-triazol-5-yl)urea] | < 100 |
